According to patent US12018058B2, “Compositions and methods for diagnosing and/or treating kidney injury” (Boston Medical Center Corporation, priority 2018, dated 2024):
Like-named read-outs stand apart in the source and are kept apart here. Square brackets hold non-standard residues; d marks the D form. Peptide text beside a SMILES is read from it. βAla = NCCC(=O)O

How the values were obtained:
Type in all cases: cell-based
[1] = tested on: mitochondrial Bax accumulation; assay: NPM and Bax accumulation in mitochondria isolated from PTEC after ischemic stress; conditions: mitochondria isolated from human PTEC after ischemic stress
Text: (§1) NPM is a relevant therapeutic target in human AKI. Primary human proximal tubule epithelial cells (PTEC) derived from cadaveric kidneys were subjected to ischemic stress (transient ATP depletion) in the presence of specific NPM siRNA or non-sense siRNA. […] Thus, manipulating NPM is an effective maneuver. […] Small peptides of 30 amino acids or less are sufficiently specific to minimize off target effects and also reduce the risk of eliciting an antibody response that causes tachyphylaxis. Peptides were commercially synthesized and fused to a nuclear localizing sequence (this NLS has no functional relationship to the “NPM NLS” that regulates NPM translocation). The NLS-CPP markedly increases renal accumulation of small peptides8 as well as in the proximal tubule. […] To determine its effect on NPM-Bax complex formation, active Bax was immunoprecipitated from PTEC rendered ischemic with an antibody directed against the 6A7 epitope. The precipitates were subjected to immunoblot analysis using an anti-NPM antibody. […] NPM and Bax accumulation was measured in mitochondria isolated from human PTEC after ischemic stress. […] This is likely due to the prolonged half-life (about 80 hr) of the peptide in vitro and in vivo due to the presence of an AC modification slows degradation.

[2] = tested on: NPM-Bax complex; assay: NPM-Bax complex formation, 6A7 Bax immunoprecipitation and NPM immunoblot in ischemic PTEC; conditions: ischemic primary murine PTEC; compared to size matched random peptide
Text: as §1

[3] = tested on: primary human PTECs; set-up: Improvement in cell survival: dose or concentration left out as unconfirmed; conditions: for Cell survival after ischemic stress: PTECs, ATP depletion, versus control peptide
Description: Exposure to metabolic inhibitors is an established model of ischemic stress that reduces ATP content to, 10% of baseline values until recovery is initiated.24,26 To achieve ATP depletion, cells were washed three times in glucose-free DMEM (Invitrogen, Carlsbad, CA) followed by incubation in glucose-free DMEM containing sodium cyanide (5 mM) and 2-deoxy-glucose (5 mM) for the indicated times.26
Recovery was initiated by replacing the stress medium described above with complete primary cell culture medium containing glucose and substrates that support the rapid restoration of cell ATP.27
For in vitro testing in primary human PTECs, peptides ([…]) were tested that replicate the Bax domain responsible for binding NPM,34 or two peptides designed to interfere with NPM function were compared with a random nonspecific sequence of the same length (control). Peptides intended to interfere with NPM function overlap key phosphorylation sites located at the NPM amino terminus (peptide 2) or carboxy terminus (peptide 3) detected by mass spectrometry. To improve cell uptake, all peptides contained a cell-penetrating sequence13. For in vivo experiments, a renal-targeting sequence (NLS) was added to enhance renal peptide uptake.35 Peptides were commercially synthesized (Biomatik, Wilmington, DE) J Am Soc Nephrol 30: ccc-ccc, 2018 Nucleophosmin in AKI 3www.jasn.org BASIC RESEARCHas follows: NPM-Bax blocking peptide: Ac-KKKRKV-(bA)-[…]-COOH (SEQ ID NO: 8); peptide 2: AC-PKKKRKV-(bA)-[…]-COOH (SEQ ID NO: 9); and peptide 3: AC-PKKKRKV-(bA)-ESFKK-QEKTPKTPKGPSSVED-IKAK-COOH (SEQ ID NO: 10). A single dose ([…] of the NPM-Bax blocking or control peptide) was administered by tail vein injection immediately after release of the pedicle clamps(0 timepoint) […] in each experimental group. A total of 42 control and 56 experimental animals were studied.
Transient exposure to metabolic inhibitors replicates ischemia in vivo by activating Bax and causing cell death.13,29,36-38 Cell viability was assayed using a modified colorimetric technique (MTTassay).37 The number of surviving cells is expressed as a percentage of viable control cells detected at baseline. Serum BUN and creatinine levels were measured in tail vein blood samples for 7 days after ischemia using QuantiChrom BUN or creatinine assay kits (BioAssay Systems, Hayward, CA) according to the manufacturer's instructions.

## CC[C@H](C)[C@H](NC(=O)[C@@H](NC(=O)[C@H](CC(C)C)NC(=O)[C@H](CO)NC(=O)[C@H](C)NC(=O)[C@@H](NC(=O)[C@H](CC(C)C)NC(=O)[C@@H](NC(=O)CNC(=O)[C@H](C)NC(=O)[C@@H](NC(=O)[C@H](Cc1ccccc1)NC(=O)[C@@H](NC(=O)[C@@H](NC(=O)[C@@H](NC(=O)[C@@H](NC(=O)CCNC(=O)[C@@H](NC(=O)[C@H](CCCCN)NC(=O)[C@H](CCCNC(=N)N)NC(=O)[C@H](CCCCN)NC(=O)[C@H](CCCCN)NC(=O)[C@H](CCCCN)NC(C)=O)C(C)C)[C@@H](C)O)C(C)C)[C@@H](C)O)[C@@H](C)CC)C(C)C)C(C)C)[C@@H](C)O)[C@@H](C)O)C(=O)N[C@@H](Cc1c[nH]c2ccccc12)C(=O)N[C@@H](CCCCN)C(=O)N[C@@H](CCCCN)C(=O)N[C@@H](CCSC)C(=O)NCC(=O)O [Peptide #1] (Ac-KKKRKV[βAla]TVTIFVAGVLTASLTIWKKMG-OH)
[1]
  Mitochondrial Bax and NPM accumulation: decreased mitochondrial Bax accumulation to a greater extent than it reduced NPM accumulation
[2]
  Decrease of NPM-Bax complex formation: about 50%
[3]
  Improvement in cell survival: 25%
[3]; listed as Bax peptide
  Cell survival after ischemic stress: significantly improve cell survival
[3]; listed as NPM blocking peptide
  Cell survival after ischemic stress: improves renal cell survival
